{"source": "patent US20060199841A1", "about": "“Pharmaceutical combination for the treatment of spasticity and/or pain” (priority 2003, published 2006)", "key": {"[1]": {"system": "GYKI 20039 induced tremor", "assay": "Tremor test in mice (GYKI 20039 induced tremor)", "assay_type": "in vivo", "conditions": "for ED50: Mus musculus, ip; for Tremor inhibitory effect ED50: i.p.", "excerpt": "Tremor can be induced by administration of GYKI 20039 (3-(2,6-dichlorophenyl)-2-iminothiazolidine). The method was published by Kocsis P., Tarnawa I., Kovács Gy., Szombathelyi Zs., Farkas S., 2002; Acta Pharmaceut. Hung., 72:49-61; U.S. Pat. No. 5,340,823, 1994, U.S. Pat. No. 5,198,446, JP 1992270293, EP 0468825, 1990 HU 4647.\nThe aim of our experiments was to decide if the effect of tolperisone is influenced by co-administration of dextromethorphan."}, "[2]": {"conditions": "in humans; cited from earlier work"}, "[3]": {"system": "monosynaptic reflex, hemisected spinal cord preparation", "assay": "Spinal reflex inhibitory action in vitro, hemisected spinal cord preparation", "experimental": "Spinal reflex Inhibitory Action, In Vitro\nOur experiments were performed according to the methods described by Otsuka and Konishi (Otsuka and Konishi, Nature 1974. 252, 733.), with slight modifications (Kocsis et al., Brain Res. Bull. 2003. 60, 81.).\nThis experiment is suitable for testing central muscle relaxant activity. In the tremor test the efficacy of drugs may be considerably influenced by metabolic and pharmacokinetic factors, therefore we used an in vitro model to investigate the pharmacodynamic interaction between the components of the combination without the interference of the above factors.\nWe determined the dose-response curve for monosynaptic reflex inhibition of dextromethorphan alone, and in the presence of tolperisone or eperisone. In the control study we measured the effect of dextromethorphan at 0.25; 0.5 and 1 μM. In other experiments we added tolperisone (25 μM) or eperisone (20 μM) to the perfusion solution, and taking the equilibrium responses in these conditions as references, we measured the reflex inhibitory action of dextromethorphan. […] The potentiating effect of eperisone has been even more expressed (see Table 4.)."}, "[4]": {"system": "neuropathic pain (allodynia)", "assay": "Rat allodynia model (Bennet-Xie model, von Frey filaments)", "assay_type": "in vivo", "conditions": "for analgesic effect in the allodynia model (in words): i.p., dextromethorphan 10 mg/kg alone or in combined treatment with tolperisone", "excerpt": "In our experiments, we applied the Bennet-Xie model (G. J. Bennett, Y.-K. Xie, Pain 33: 87-107; 1988) to test the effect of the combination against neuropathic pain. We measured the threshold of the pain reaction with von Frey filaments calibrated to 0.9, 1.2, 1.8, 3.6, 5.4, 6.9, 8.9, 12 and 20 g."}, "pain": {"system": "pain", "conditions": "cited from earlier work"}, "[5]": {"conditions": "15-minute pre-treatment, dose causing 50% tremor inhibition, read-out: Tremor inhibitory effect ED50"}, "[6]": {"conditions": "15-minute pre-treatment, dose causing 50% tremor inhibition"}}, "note": "Like-named read-outs stand apart in the source and are kept apart here.", "data": [{"smiles": "NCC(CC(=O)O)c1ccc(Cl)cc1", "note": "(stereo not shown) [Baclofen]", "values": [{"measurement": "ED50", "setting": "[1]; [5]", "value": 9.1, "unit": "mg/kg"}]}, {"smiles": "Cc1ccc(C(=O)C(C)CN2CCCCC2)cc1", "note": "(stereo not shown) [Tolperisone, 2-mehyl-1-(4-methylphenyl)-3-(1-piperidinyl)-1-propanone]", "values": [{"measurement": "oral bioavailability", "setting": "[2]", "value": "16-20%"}, {"measurement": "Reflex Inhibition (%)", "setting": "[3]; tolperisone 25 μM alone", "value": 26.97, "unit": "%"}, {"measurement": "Reflex Inhibition (%)", "setting": "[3]; tolperisone 50 μM alone", "value": 48.61, "unit": "%"}, {"measurement": "Reflex Inhibition (%)", "setting": "[3]; tolperisone 100 μM alone", "value": 70.30, "unit": "%"}, {"measurement": "IC50", "setting": "[3]; tolperisone alone, sigmoid fitting, read-out: IC50 of tolperisone, reflex inhibitory activity", "value": 52.4, "unit": "µM"}, {"measurement": "analgesic effect in the allodynia model (in words)", "setting": "[4]", "value": "significant analgesic effect"}, {"measurement": "Threshold value (g) mean", "setting": "[4]; tolperisone 20 mg/kg i.p., time 0 min", "value": 3.6, "unit": "g"}, {"measurement": "Threshold value (g) mean", "setting": "[4]; tolperisone 20 mg/kg i.p., time 10 min", "value": 14.89, "unit": "g"}, {"measurement": "Threshold value (g) mean", "setting": "[4]; tolperisone 20 mg/kg i.p., time 20 min", "value": 10.31, "unit": "g"}, {"measurement": "Inhibition of tremor (control %) Mean", "setting": "[1]; 40 mg/kg tolperisone i.p.", "value": 27, "unit": "control %"}, {"measurement": "Inhibition of tremor (control %) Mean", "setting": "[1]; 60 mg/kg tolperisone i.p.", "value": 48, "unit": "control %"}, {"measurement": "Tremor inhibitory effect ED50", "setting": "[1]; [6]", "value": 60.0, "unit": "mg/kg"}, {"measurement": "Inhibition of tremor (%)", "setting": "[1]; tolperisone 60 mg/kg i.p., dextromethorphan 0 mg/kg", "value": 48.3, "unit": "%"}, {"measurement": "ED50 for the tremor inhibitory activity", "setting": "[1]; tolperisone alone", "value": "55.0 ± 7.2", "unit": "mg/kg"}]}, {"smiles": "Clc1ccc2nsnc2c1NC1=NCCN1", "note": "[Tizanidine]", "values": [{"measurement": "ED50", "setting": "[1]; [5]", "value": 0.73, "unit": "mg/kg"}]}, {"smiles": "Cc1ccccc1OCC(O)CO", "note": "(stereo not shown) [Mephenesin]", "values": [{"measurement": "ED50", "setting": "[1]; [5]", "value": 81.5, "unit": "mg/kg"}]}, {"smiles": "COc1ccc2c(c1)[C@]13CCCC[C@@H]1[C@H](C2)N(C)CC3", "note": "(racemic) [Dextromethorphan, (+/−)-3-methoxi-17-methylmorphinan]", "values": [{"measurement": "effect in the treatment of chronic pain", "setting": "pain; clinical trials, Ben-Abraham and Weinbroum 2000", "value": "ineffective"}, {"measurement": "effect in an experimental human pain model", "setting": "pain; clinically acceptable dose range, Kaippula et al. 1995", "value": "no effect"}, {"measurement": "relieving acute ischemic pain", "setting": "pain; in humans, Plesan et al. 2000", "value": "without effect"}, {"measurement": "inhibition at 0.25 µM", "setting": "[3]; dextromethorphan 0.25 μM alone", "value": 20.7, "unit": "%"}, {"measurement": "inhibition at 0.5 µM", "setting": "[3]; dextromethorphan 0.5 μM alone", "value": 36.6, "unit": "%"}, {"measurement": "inhibition at 1 µM", "setting": "[3]; dextromethorphan 1 μM alone", "value": 40.9, "unit": "%"}, {"measurement": "IC50", "setting": "[3]; dextromethorphan alone, read-out: IC50 of dextromethorphan, reflex inhibitory activity", "value": 1.56, "unit": "µM"}, {"measurement": "Threshold value (g) mean", "setting": "[4]; dextromethorphan 10 mg/kg i.p., time 0 min", "value": 3.26, "unit": "g"}, {"measurement": "Threshold value (g) mean", "setting": "[4]; dextromethorphan 10 mg/kg i.p., time 10 min", "value": 7.57, "unit": "g"}, {"measurement": "Threshold value (g) mean", "setting": "[4]; dextromethorphan 10 mg/kg i.p., time 20 min", "value": 6.03, "unit": "g"}, {"measurement": "analgesic effect in the allodynia model (in words)", "setting": "[4]", "value": "practically ineffective"}, {"measurement": "Inhibition of tremor (control %) Mean", "setting": "[1]; 10 mg/kg dextromethorphan i.p.", "value": 8, "unit": "control %"}, {"measurement": "tremor inhibition (in words)", "setting": "[1]; 10 mg/kg dextromethorphan, 10-minute pre-treatment", "value": "no significant tremor inhibition"}, {"measurement": "ED50", "setting": "[1]; read-out: ED50 of inhibition of the tremor", "value": 24.4, "unit": "mg/kg"}]}, {"smiles": "CCc1ccc(C(=O)C(C)CN2CCCCC2)cc1", "note": "(stereo not shown) [Eperisone, 2-mehyl-1-(4-ethylphenyl)-3-(1-piperidinyl)-1-propanone]", "values": [{"measurement": "Tremor inhibitory effect ED50", "setting": "[1]; [6]", "value": 51.8, "unit": "mg/kg"}]}, {"smiles": "Cc1ccccc1-n1c(CF)nc2ccc(N)cc2c1=O", "note": "[Afloqualon]", "values": [{"measurement": "Tremor inhibitory effect ED50", "setting": "[1]; [6]", "value": 11.1, "unit": "mg/kg"}]}, {"smiles": "CC12CC3CC(C)(C1)CC(N)(C3)C2", "note": "[Memantine]", "values": [{"measurement": "ED50", "setting": "[1]; [5]", "value": 20.5, "unit": "mg/kg"}]}]}
